Assay results taken from PubChem BioAssay AID1918945 (Molecular Pharmacology Branch, DTP, NCI, 2023).

Tested on: 883617-216-R-J1-PDC complex spheroid viability
Experiment: Anticancer human tumor 883617-216-R-J1-PDC patient-derived bladder carcinoma cell line growth inhibition
Conditions: for IC50: curve of first compound; for viability, T/C: stronger effect = lower value
Source text: Multicellular complex tumor spheroid response to LSD1 Inhibitor Iadademstat in combination with a variety of drugs and investigational agents in selected tumor cell lines
The current study was undertaken to assess response to LSD1 inhibitors in combination with standard-of-care drugs and investigational agents in solid tumor complex spheroid models as well as in the K-562 leukemia. Complex spheroids include a stromal component modeled by human endothelial cells (HUVEC) and fibroblasts modeled by human mesenchymal stem cells (MSCs). The concentration ranges selected for each drug and investigational agent were based upon clinically achievable concentrations if the clinical Cmax of the agent was known.
Compounds. The drugs and investigational agents used in this study are listed on Table 1. All of the agents used, including staurosporine (NSC755774) and gemcitabine (NSC613327), were obtained from the Developmental Therapeutics Program, NCI. FDA-approved anticancer drugs are available from the NCI at http://dtp.nci.nih.gov/branches/dscb/oncology_drugset_explanation.html. Drugs and investigational agents were >95% pure by proton nuclear magnetic resonance (NMR) and liquid chromatography/mass spectrometry (LC/MS). Stock solutions were prepared at 400x in DMSO, stored at -70 degrees C, and diluted in fresh medium prior to their use. The final concentration of DMSO in cell culture wells never exceeded 0.25% (v/v). The FDA-approved anticancer drug set is available from the Developmental Therapeutics Program at https://dtp.cancer.gov/organization/dscb/obtaining/available_plates.htm. All drugs and investigational agents were tested over a range starting from a high concentration at or near the clinical Cmax and decreasing in half-log increments. If the clinical Cmax for an agent had not been determined, the highest concentration tested was 10 microM.
Cell Lines. The patient-derived cancer cell (PDC) lines: 292921-168-R-J2-PDC, K24384-001-R-PDC, and 521955-158-R2-J5-PDC pancreatic carcinomas, 556581-035-R-J1 ovarian carcinoma, 324938-238-R-J1-PDC, 855422-203-R-J1-PDC and 883617-216-R-J1-PDC urothelial bladder carcinomas, 743489-274-T-PDC renal cell carcinoma, 138582-R-J1 Merkel cell tumor, K60290-347-R-J1 and K57222-313-R-J1-PDC glioblastomas, 653999-131-R-J2-PDC, LG0703-F948-PDC, and 349418-098-R-PDC non-small cell lung carcinomas, 885512-296-R-J2-PDC, 171881-019-R-J1-PDC breast carcinomas and 186277-243-T-J2-PDC and 233499-124-R-J2-PDC colon carcinomas were obtained from the NCI Patient-Derived Models Repository (PDMR, https://pdmr.cancer.gov). The established cell lines NCI/ADR-RES (RRID:CVCL_14520 and OVCAR-5 (RRID:CVCL_1628) ovarian carcinomas, 786-O (RRID:CVCL_1051) and A498 (RRID:CVCL_A498) renal cell carcinoma, NCI-H211 (ATCC, cat. CRL-5824; RRID:CVCL_1529), NCI-H196 (ATCC, cat. CRL-5823, RRID:CVCL_1509), SW 1271 (ATCC, cat. CRL-2177, RRID:CVCL_1716) and NCI-H1876 (ATCC, cat. CRL-5902, RRID:CVCL_1503) small cell lung carcinomas, MDA-MB-231 (RRID:CVCL_0062) and MDA-MB-468 (RRID:CVCL_0419)breast carcinomas (10-12). Pooled donor human umbilical vein endothelial cells (HUVEC, Lonza, cat. CC-2519) and human mesenchymal stem cells (hMSC, Lonza, cat. PT-2501) were purchased from Lonza (Walkersville, MD).
Cell Culture. All cells were maintained in an incubator at 37 degrees C and 5% CO2 with 95% humidity. The PDC lines were cultured according to standard operating procedures established by the NCI PDMR (https://pdmr.cancer.gov). Briefly all PDCs were thawed and cultured in Matrigel-coated flasks prepared with a working solution of 1X Ham's F-12 nutrient mix, without supplementation (Invitrogen, Waltham, MA, cat. 11765054), 100 U/mL penicillin-streptomycin (Invitrogen, cat. 15140122), and 2.5% Matrigel (Corning Inc., Corning, NY, cat. 354248) for the first three passages. […]

[1] = second compound 0.1 µM, first compound 0.000949 µM
[2] = second compound 0.1 µM, first compound 0.003 µM
[3] = second compound 0.1 µM, first compound 0.00949 µM
[4] = second compound 0.1 µM, first compound 0.03 µM
[5] = second compound 0.1 µM, first compound 0.0949 µM
[6] = second compound 0.1 µM, first compound 0.3 µM
[7] = second compound 0.316 µM, first compound 0.000949 µM
[8] = second compound 0.316 µM, first compound 0.003 µM
[9] = second compound 0.316 µM, first compound 0.00949 µM
[10] = second compound 0.316 µM, first compound 0.03 µM
[11] = second compound 0.316 µM, first compound 0.0949 µM
[12] = second compound 0.316 µM, first compound 0.3 µM
[13] = second compound 1 µM, first compound 0.000949 µM
[14] = second compound 1 µM, first compound 0.003 µM
[15] = second compound 1 µM, first compound 0.00949 µM
[16] = second compound 1 µM, first compound 0.03 µM
[17] = second compound 1 µM, first compound 0.0949 µM
[18] = second compound 1 µM, first compound 0.3 µM
[19] = second compound 3.16 µM, first compound 0.000949 µM
[20] = second compound 3.16 µM, first compound 0.003 µM
[21] = second compound 3.16 µM, first compound 0.00949 µM
[22] = second compound 3.16 µM, first compound 0.03 µM
[23] = second compound 3.16 µM, first compound 0.0949 µM
[24] = second compound 3.16 µM, first compound 0.3 µM
[25] = second compound 10 µM, first compound 0.000949 µM
[26] = second compound 10 µM, first compound 0.003 µM
[27] = second compound 10 µM, first compound 0.00949 µM
[28] = second compound 10 µM, first compound 0.03 µM
[29] = second compound 10 µM, first compound 0.0949 µM
[30] = second compound 10 µM, first compound 0.3 µM
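Further: exposure lasted seven days after three days of spheroid growth.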
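Wherever viability, T/C is given: 100% = DMSO vehicle control luminescence.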

SMILES: CCc1c2c(nc3ccc(O)cc13)-c1cc3c(c(=O)n1C2)COC(=O)[C@]3(O)CC + NC1CC1c1ccc(-c2cccc(O)c2)cc1
- IC50 (second compound 0.1 µM): < 0.949 nM
- IC50 (second compound 0.316 µM): < 0.949 nM
- IC50 (second compound 1 µM): < 0.949 nM
- IC50 (second compound 3.16 µM): < 0.949 nM
- IC50 (second compound 10 µM): < 0.949 nM
- viability, T/C [1]: 25.1%
- viability, T/C [2]: 20.4%
- viability, T/C [3]: 17.5%
- viability, T/C [4]: 14%
- viability, T/C [5]: 0.36%
- viability, T/C [6]: 0.15%
- viability, T/C [7]: 25.6%
- viability, T/C [8]: 21.7%
- viability, T/C [9]: 19.9%
- viability, T/C [10]: 13%
- viability, T/C [11]: 0.27%
- viability, T/C [12]: 0.12%
- viability, T/C [13]: 25.8%
- viability, T/C [14]: 21.6%
- viability, T/C [15]: 24.4%
- viability, T/C [16]: 14.2%
- viability, T/C [17]: 0.38%
- viability, T/C [18]: 0.88%
- viability, T/C [19]: 21.6%
- viability, T/C [20]: 18.4%
- viability, T/C [21]: 19.6%
- viability, T/C [22]: 14.4%
- viability, T/C [23]: 0.18%
- viability, T/C [24]: 0.15%
- viability, T/C [25]: 22.1%
- viability, T/C [26]: 19.7%
- viability, T/C [27]: 17.4%
- viability, T/C [28]: 13.8%
- viability, T/C [29]: 0.25%
- viability, T/C [30]: 0.21%

SMILES: Nc1ccn(C2OC(CO)C(O)C2(F)F)c(=O)n1 (stereo not given) + NC1CC1c1ccc(-c2cccc(O)c2)cc1
- IC50 (second compound 0.1 µM): < 0.949 nM
- IC50 (second compound 0.316 µM): < 0.949 nM
- IC50 (second compound 1 µM): < 0.949 nM
- IC50 (second compound 3.16 µM): < 0.949 nM
- IC50 (second compound 10 µM): < 0.949 nM
- viability, T/C [1]: 19.4%
- viability, T/C [2]: 23.2%
- viability, T/C [3]: 21.9%
- viability, T/C [4]: 22.2%
- viability, T/C [5]: 23.6%
- viability, T/C [6]: 24.9%
- viability, T/C [7]: 19.8%
- viability, T/C [8]: 20.6%
- viability, T/C [9]: 22.8%
- viability, T/C [10]: 21%
- viability, T/C [11]: 23.2%
- viability, T/C [12]: 23%
- viability, T/C [13]: 22%
- viability, T/C [14]: 20.8%
- viability, T/C [15]: 23.4%
- viability, T/C [16]: 21.5%
- viability, T/C [17]: 21.1%
- viability, T/C [18]: 24.4%
- viability, T/C [19]: 21.9%
- viability, T/C [20]: 20.8%
- viability, T/C [21]: 20.6%
- viability, T/C [22]: 25.6%
- viability, T/C [23]: 21%
- viability, T/C [24]: 20.9%
- viability, T/C [25]: 29.5%
- viability, T/C [26]: 27.2%
- viability, T/C [27]: 24.9%
- viability, T/C [28]: 24.3%
- viability, T/C [29]: 23.3%
- viability, T/C [30]: 21.6%
